{"source": "patent US20040234610A1", "about": "“Medical device and method for inhalation of aerosolized drug with heliox” (priority 2001, published 2004)", "key": {"asthma patients": {"system": "asthma patients", "experiment": "Pilot study, albuterol nebulized with heliox vs oxygen through open mouthpiece and T-piece system, spirometry", "type": "in vivo, human", "details": "open mouthpiece and T-piece adapter system", "protocol": "A pilot study was conducted using an open system, including a mouthpiece and T-piece adapter ([…], Allegiance Healthcare Corp., McGaw Park, Ill.), to nebulize albuterol."}, "[1]": {"system": "adult patients with severe acute exacerbation of asthma", "experiment": "Same randomized study: vital signs, pulse oximetry, hospital admissions", "type": "in vivo, human", "details": "for % change HR post neb 1 / % change HR post neb 2 / % change HR post neb 3: mean ± SD; for Hospital admission rate: P=0.81", "text": "The heliox delivery system consisted of a facemask connected to a Y-piece with the nebulizer (Airlife™ Misty-Neb™ Nebulizer) on one limb and a non-rebreather bag on the other limb (as shown in FIG. 1). Heliox flow to the nebulizer was set at 10 liters/minute (via an oxygen calibrated flow meter thus equivalent to 18 L/min Heliox flow). A separate flow of 10 liters/minute of heliox (via an oxygen calibrated flow meter thus equivalent to 18 L/min Heliox flow) was delivered to the non-rebreather bag. […] Each treatment continued until the nebulizer was dry—a period of approximately ten minutes, followed by a fifteen minute washout period. The total time for the study was approximately 90 minutes. Corticosteroid therapy for asthma exacerbations was directed by the emergency room physicians, who were not directly involved in the study.\nDemographic data, chronic asthma medications, emergency room corticosteroid administration, vital signs (heart rate, mean arterial pressure, respiratory rate), oxygen saturation by pulse oximetry, emergency room length of stay and hospital admissions from the emergency room were recorded for all patients. Data are expressed as mean±SD when normally distributed and median (interquartile range) when not normally distributed. Interval data were compared using a two-tailed Student's t test or Mann Whitney U test according to normality of distribution, categorical data were compared using Chi square or Fisher Exact test when appropriate. […] The Student-Newman-Keuls test was used to compare differences between heliox and control groups after each nebulization treatment when appropriate. […] A 25% difference in percent change in FEV1 between the control and heliox groups was considered clinically important. Using a standard deviation of 28% (based on preliminary work), an a error of 0.05 and a β error of 0.20, it was estimated that a total of 42 patients (21 in each group) would be needed to avoid a type II error. […] In this situation, a P value of <0.0167 was considered to indicate statistical significance."}, "[2]": {"experiment": "Nebulized particle size distribution by Anderson Cascade Impactor, Y design, drug suspension and different heliox flow rates", "type": "physicochemical", "protocol": "Additional tests were performed with the ACI described in Example 3 in order to assess the device's ability to nebulize a liquid drug suspension and to assess various heliox flow rate combinations. […]"}, "[3]": {"details": "6-6 lpm heliox (nebulizer-side port)"}, "[4]": {"details": "10-10 lpm heliox (nebulizer-side port)"}, "[5]": {"details": "10-18 lpm heliox (nebulizer-side port)"}, "[6]": {"details": "18-0 lpm heliox (nebulizer-side port)"}, "[7]": {"details": "18-10 lpm heliox (nebulizer-side port)"}, "[8]": {"details": "trial 6-6: heliox 6 L/min nebulizer, 6 L/min side port"}, "[9]": {"details": "trial 10-10: heliox 10 L/min nebulizer, 10 L/min side port"}, "[10]": {"details": "trial 10-18: heliox 10 L/min nebulizer, 18 L/min side port"}, "[11]": {"details": "trial 18-0: heliox 18 L/min nebulizer, 0 L/min side port"}, "[12]": {"details": "trial 18-10: heliox 18 L/min nebulizer, 10 L/min side port"}}, "data": [{"smiles": "CC(C)(C)NCC(O)c1ccc(O)c(CO)c1", "note": "(stereo not drawn) [albuterol]", "values": [{"measurement": "differences in spirometry between heliox and oxygen albuterol nebulization", "setting": "asthma patients", "result": "no differences in spirometry between heliox and oxygen albuterol nebulization were detected"}, {"measurement": "differences in other vital signs or pulse oximetry, heliox vs control", "setting": "[1]; MAP, RR, SpO2, at any point during the study", "result": "no other significant differences in any vital signs or in pulse oximetry between the groups"}, {"measurement": "% change HR post neb 1", "setting": "[1]; control (oxygen)", "result": "−8.7 ± 7.4", "unit": "%"}, {"measurement": "% change HR post neb 2", "setting": "[1]; control (oxygen)", "result": "−4.6 ± 8.7", "unit": "%"}, {"measurement": "% change HR post neb 3", "setting": "[1]; control (oxygen)", "result": "−2.7 ± 12.7", "unit": "%"}, {"measurement": "Hospital admission rate", "setting": "[1]; control group (oxygen)", "result": "6 of 22"}, {"measurement": "Hospital admission rate", "setting": "[1]; heliox group", "result": "6 of 23"}, {"measurement": "% change HR post neb 1", "setting": "[1]; heliox, P 0.01 vs control", "result": "−0.9 ± 7.8", "unit": "%"}, {"measurement": "% change HR post neb 3", "setting": "[1]; heliox, P 0.01 vs control", "result": "5.6 ± 12.0", "unit": "%"}, {"measurement": "% change HR post neb 2", "setting": "[1]; heliox, P 0.08 vs control", "result": "1.0 ± 11.3", "unit": "%"}, {"measurement": "0.7 ≦ Mean Fraction < 5.8 μm", "setting": "[2]; [3]", "result": 0.755}, {"measurement": "Mean Fraction < 0.7 μm", "setting": "[2]; [3]", "result": 0.112}, {"measurement": "Mean Fraction ≧ 5.8 μm", "setting": "[2]; [3]", "result": 0.134}, {"measurement": "0.7 ≦ Mean Fraction < 5.8 μm", "setting": "[2]; [4]", "result": 0.773}, {"measurement": "Mean Fraction < 0.7 μm", "setting": "[2]; [4]", "result": 0.159}, {"measurement": "Mean Fraction ≧ 5.8 μm", "setting": "[2]; [4]", "result": 0.068}, {"measurement": "0.7 ≦ Mean Fraction < 5.8 μm", "setting": "[2]; [5]", "result": 0.626}, {"measurement": "Mean Fraction < 0.7 μm", "setting": "[2]; [5]", "result": 0.306}, {"measurement": "Mean Fraction ≧ 5.8 μm", "setting": "[2]; [5]", "result": 0.068}, {"measurement": "0.7 ≦ Mean Fraction < 5.8 μm", "setting": "[2]; [6]", "result": 0.658}, {"measurement": "Mean Fraction < 0.7 μm", "setting": "[2]; [6]", "result": 0.224}, {"measurement": "Mean Fraction ≧ 5.8 μm", "setting": "[2]; [6]", "result": 0.118}, {"measurement": "0.7 ≦ Mean Fraction < 5.8 μm", "setting": "[2]; [7]", "result": 0.609}, {"measurement": "Mean Fraction < 0.7 μm", "setting": "[2]; [7]", "result": 0.317}, {"measurement": "Mean Fraction ≧ 5.8 μm", "setting": "[2]; [7]", "result": 0.075}, {"measurement": "Fraction, Adapter", "setting": "[2]; [8]", "result": 0.033}, {"measurement": "Fraction, Collar", "setting": "[2]; [8]", "result": 0.034}, {"measurement": "Fraction, Filter (cut size <0.40 μm)", "setting": "[2]; [8]", "result": 0.045}, {"measurement": "Fraction, Stage 0 (cut size 9.00 μm, midpt 10.70 μm)", "setting": "[2]; [8]", "result": 0.023}, {"measurement": "Fraction, Stage 1 (cut size 5.80 μm, midpt 7.22 μm)", "setting": "[2]; [8]", "result": 0.015}, {"measurement": "Fraction, Stage 2 (cut size 4.70 μm, midpt 5.22 μm)", "setting": "[2]; [8]", "result": 0.013}, {"measurement": "Fraction, Stage 3 (cut size 3.30 μm, midpt 3.94 μm)", "setting": "[2]; [8]", "result": 0.042}, {"measurement": "Fraction, Stage 4 (cut size 2.10 μm, midpt 2.63 μm)", "setting": "[2]; [8]", "result": 0.171}, {"measurement": "Fraction, Stage 6 (cut size 0.70 μm, midpt 0.88 μm)", "setting": "[2]; [8]", "result": 0.130}, {"measurement": "Fraction, Stage 7 (cut size 0.40 μm, midpt 0.53 μm)", "setting": "[2]; [8]", "result": 0.067}, {"measurement": "Fraction, Tee Piece", "setting": "[2]; [8]", "result": 0.015}, {"measurement": "Fraction, Throat (USP) (cut size >9.00 μm, midpt 24.49 μm)", "setting": "[2]; [8]", "result": 0.013}, {"measurement": "Fraction, Adapter", "setting": "[2]; [9]", "result": 0.018}, {"measurement": "Fraction, Collar", "setting": "[2]; [9]", "result": 0.018}, {"measurement": "Fraction, Filter (cut size <0.40 μm)", "setting": "[2]; [9]", "result": 0.053}, {"measurement": "Fraction, Stage 0 (cut size 9.00 μm, midpt 10.70 μm)", "setting": "[2]; [9]", "result": 0.012}, {"measurement": "Fraction, Stage 1 (cut size 5.80 μm, midpt 7.22 μm)", "setting": "[2]; [9]", "result": 0.011}, {"measurement": "Fraction, Stage 2 (cut size 4.70 μm, midpt 5.22 μm)", "setting": "[2]; [9]", "result": 0.002}, {"measurement": "Fraction, Stage 4 (cut size 2.10 μm, midpt 2.63 μm)", "setting": "[2]; [9]", "result": 0.171}, {"measurement": "Fraction, Stage 6 (cut size 0.70 μm, midpt 0.88 μm)", "setting": "[2]; [9]", "result": 0.202}, {"measurement": "Fraction, Stage 7 (cut size 0.40 μm, midpt 0.53 μm)", "setting": "[2]; [9]", "result": 0.106}, {"measurement": "Fraction, Tee Piece", "setting": "[2]; [9]", "result": 0.009}, {"measurement": "Fraction, Throat (USP) (cut size >9.00 μm, midpt 24.49 μm)", "setting": "[2]; [9]", "result": 0.002}, {"measurement": "Fraction, Adapter", "setting": "[2]; [10]", "result": 0.015}, {"measurement": "Fraction, Collar", "setting": "[2]; [10]", "result": 0.011}, {"measurement": "Fraction, Filter (cut size <0.40 μm)", "setting": "[2]; [10]", "result": 0.113}, {"measurement": "Fraction, Stage 0 (cut size 9.00 μm, midpt 10.70 μm)", "setting": "[2]; [10]", "result": 0.011}, {"measurement": "Fraction, Stage 1 (cut size 5.80 μm, midpt 7.22 μm)", "setting": "[2]; [10]", "result": 0.006}, {"measurement": "Fraction, Stage 2 (cut size 4.70 μm, midpt 5.22 μm)", "setting": "[2]; [10]", "result": 0.007}, {"measurement": "Fraction, Stage 3 (cut size 3.30 μm, midpt 3.94 μm)", "setting": "[2]; [10]", "result": 0.008}, {"measurement": "Fraction, Stage 4 (cut size 2.10 μm, midpt 2.63 μm)", "setting": "[2]; [10]", "result": 0.077}, {"measurement": "Fraction, Stage 6 (cut size 0.70 μm, midpt 0.88 μm)", "setting": "[2]; [10]", "result": 0.232}, {"measurement": "Fraction, Stage 7 (cut size 0.40 μm, midpt 0.53 μm)", "setting": "[2]; [10]", "result": 0.192}, {"measurement": "Fraction, Tee Piece", "setting": "[2]; [10]", "result": 0.024}, {"measurement": "Fraction, Throat (USP) (cut size >9.00 μm, midpt 24.49 μm)", "setting": "[2]; [10]", "result": 0.001}, {"measurement": "Fraction, Adapter", "setting": "[2]; [11]", "result": 0.027}, {"measurement": "Fraction, Collar", "setting": "[2]; [11]", "result": 0.011}, {"measurement": "Fraction, Filter (cut size <0.40 μm)", "setting": "[2]; [11]", "result": 0.088}, {"measurement": "Fraction, Stage 0 (cut size 9.00 μm, midpt 10.70 μm)", "setting": "[2]; [11]", "result": 0.026}, {"measurement": "Fraction, Stage 1 (cut size 5.80 μm, midpt 7.22 μm)", "setting": "[2]; [11]", "result": 0.047}, {"measurement": "Fraction, Stage 2 (cut size 4.70 μm, midpt 5.22 μm)", "setting": "[2]; [11]", "result": 0.013}, {"measurement": "Fraction, Stage 3 (cut size 3.30 μm, midpt 3.94 μm)", "setting": "[2]; [11]", "result": 0.029}, {"measurement": "Fraction, Stage 4 (cut size 2.10 μm, midpt 2.63 μm)", "setting": "[2]; [11]", "result": 0.124}, {"measurement": "Fraction, Stage 6 (cut size 0.70 μm, midpt 0.88 μm)", "setting": "[2]; [11]", "result": 0.184}, {"measurement": "Fraction, Stage 7 (cut size 0.40 μm, midpt 0.53 μm)", "setting": "[2]; [11]", "result": 0.137}, {"measurement": "Fraction, Tee Piece", "setting": "[2]; [11]", "result": 0.005}, {"measurement": "Fraction, Throat (USP) (cut size >9.00 μm, midpt 24.49 μm)", "setting": "[2]; [11]", "result": 0.002}, {"measurement": "Fraction, Adapter", "setting": "[2]; [12]", "result": 0.009}, {"measurement": "Fraction, Collar", "setting": "[2]; [12]", "result": 0.012}, {"measurement": "Fraction, Filter (cut size <0.40 μm)", "setting": "[2]; [12]", "result": 0.106}, {"measurement": "Fraction, Stage 0 (cut size 9.00 μm, midpt 10.70 μm)", "setting": "[2]; [12]", "result": 0.011}, {"measurement": "Fraction, Stage 1 (cut size 5.80 μm, midpt 7.22 μm)", "setting": "[2]; [12]", "result": 0.026}, {"measurement": "Fraction, Stage 2 (cut size 4.70 μm, midpt 5.22 μm)", "setting": "[2]; [12]", "result": 0.006}, {"measurement": "Fraction, Stage 3 (cut size 3.30 μm, midpt 3.94 μm)", "setting": "[2]; [12]", "result": 0.016}, {"measurement": "Fraction, Stage 4 (cut size 2.10 μm, midpt 2.63 μm)", "setting": "[2]; [12]", "result": 0.066}, {"measurement": "Fraction, Stage 6 (cut size 0.70 μm, midpt 0.88 μm)", "setting": "[2]; [12]", "result": 0.207}, {"measurement": "Fraction, Stage 7 (cut size 0.40 μm, midpt 0.53 μm)", "setting": "[2]; [12]", "result": 0.211}, {"measurement": "Fraction, Tee Piece", "setting": "[2]; [12]", "result": 0.016}, {"measurement": "Fraction, Throat (USP) (cut size >9.00 μm, midpt 24.49 μm)", "setting": "[2]; [12]", "result": 0.001}]}]}
